Marks after values point to notes of the source that are not given here.
Experiments:
[1] = DPPH radical scavenging activity assay; details: mean ± SD; for IC50: isolated compounds, test concentrations 15.625 to 500 μM
Protocol: The DPPH radical scavenging activity assay was determined according to the reported method with minor modifications. Briefly, extract and four fractions were dissolved in methyl alcohol at concentrations ranging from 62.5 to 1000 μg/mL, which were prepared to mix with a methyl alcohol solution of DPPH (0.2 mM, 100 μL) on a 96-well plate. After that, shaken gently and stood at room temperature for 30 min, the optical density (OD) 517 nm in each well were determined by a microplate reader. Triplicates of each sample were run, and the mean values were calculated. Ascorbic acid was chosen as positive control. The percentage inhibition (%) for each sample was calculated by the following formula: (1) Inhibition %=1−Abssamples−Abscontrol/Absblank ×100%.
DPPH solution was replaced by a methanol solution, which was used as control, and samples were replaced by the methanol solution as the black. All the results were expressed as means ± standard deviation (SD).
The antioxidant and α-glucosidase inhibitory activities of each isolated compound at concentrations ranging from 15.625 to 500 μM (DPPH) and from 125 to 2000 μM (α-glucosidase inhibitory), respectively, were determined using the methods described in Section 2.3.

α-glucosidase = assay: Inhibitory kinetic analysis (Lineweaver-Burk and Dixon plots); type: biochemical, Baker's yeast; details: substrate 0.8-5.0 mM, enzyme 1.3 U/mL; for Ki: determined by Dixon plots; for α-Glucosidase inhibitory Inhibition mode: determined by Lineweaver-Burk plots
Protocol: The kinetic mechanisms of active compounds 1 and 2 towards α-glucosidase were determined by the graphical views of Dixon and Lineweaver-Burk plots. The concentration ranges for the substrates were 0.8-5.0 mM. The concentration of the enzyme was kept constant at 1.3 U/mL. Lineweaver-Burk plots were established to evaluate the type of inhibition. Dixon plots were used to calculate inhibitory constant (Ki) values of the tested compounds. Each kinetic analysis was implemented in triplicate from which mean Ki values.

[2] = target: α-Glucosidase from Baker's yeast; assay: α-Glucosidase inhibitory assay (p-NPG substrate, 96-well plate); type: biochemical; details: isolated compounds; for IC50: test concentrations 125 to 2000 μM, mean ± SD
Protocol: The α-glucosidase inhibitory assay was performed on a 96-well plate by using a microplate reader according to the published method with minor modifications. […] […] After 5 min incubation at 37°C, 20 μL of 4-pNPG (p-nitrophenyl-α-D-glucopyranoside) (2.5 mM) was added and incubated for 15 min; then, 80 μL of Na2CO3 (0.2 M) was added to stop the reaction. The optical density (OD) values were determined using a microplate reader at 405 nm. Triplicates of each sample were run, and the mean values were calculated. […] The IC50 was calculated by using SPSS software.

Compound | IC50 [1] [µM] | further results
O=C1O[C@H]([C@@H](O)CO)C(O)=C1O [Ascorbic acid, reference compound] | – | DPPH assay IC50 ([1]; extract and fractions, test concentrations 62.5 to 1000 μg/mL, n = 3): 9.37 ± 0.84^e μg/mL
O=C(OC[C@H]1O[C@@H](OC(=O)c2cc(O)c(O)c(O)c2)[C@H](OC(=O)c2cc(O)c(O)c(O)c2)[C@@H](OC(=O)c2cc(O)c(O)c(O)c2)[C@@H]1OC(=O)c1cc(O)c(O)c(O)c1)c1cc(O)c(O)c(O)c1 [Compound 1, 1,2,3,4,6-Penta-O-galloyl-β-D-glucoside] | 2.93 ± 1.06 | Ki (α-glucosidase): 0.73295 ± 0.00022 µM; α-Glucosidase inhibitory Inhibition mode (α-glucosidase): Noncompetitive
O=C(OCC1OC(OC(=O)c2cc(O)c(O)c(O)c2)C(OC(=O)c2cc(O)c(O)c(O)c2)C(OC(=O)c2cc(O)c(O)c(O)c2)C1OC(=O)c1cc(O)c(O)c(O)c1)c1cc(O)c(O)c(O)c1 [Compound 2, 1,2,3,4,6-Penta-O-galloyl-α-D-glucoside] | 22.3 ± 0.74 | Ki (α-glucosidase): 0.09837 ± 0.00031 µM; α-Glucosidase inhibitory Inhibition mode (α-glucosidase): Competitive
O=C(OC[C@H]1O[C@@H](OC(=O)c2cc(O)c(O)c(O)c2)[C@H](OC(=O)c2cc(O)c(O)c(O)c2)[C@@H](OC(=O)c2cc(O)c(O)c(O)c2)[C@@H]1O)c1cc(O)c(O)c(O)c1 [Compound 3, 1,2,3,6-Tetra-O-galloyl-β-D-glucoside] | 23.7 ± 0.52 | IC50 [2]: 243.3 ± 1.43 µM
O=C(O[C@@H]1O[C@H](CO)[C@@H](O)[C@H](O)[C@H]1O)c1cc(O)c(O)c(O)c1 [Compound 4, 1-O-(3,4,5-Trihydroxybenzoyl)-β-D-glucoside] | 52.8 ± 0.93 | –
COC(=O)c1cc(O)c(O)c(O)c1 [Compound 5, Methyl galate] | 32.3 ± 0.48 | α-glucosidase inhibitory activity (in words) [2]: no inhibitory activity
O=C(O)c1cc(O)c(O)c(O)c1 [Compound 6, Gallic acid] | 37.8 ± 2.52 | IC50 [2]: 313 ± 3.71 µM
O=C(O)c1ccc(O)c(O)c1 [Compound 7, 3,4-Dihydroxybenzoic acid] | 38.2 ± 1.03 | IC50 [2]: 425 ± 31.5 µM
O=C(OCC(O)CO)c1cc(O)c(O)c(O)c1 (stereo not shown) [Compound 9, 1-Glycerol gallate] | > 500 | α-glucosidase inhibitory activity (in words) [2]: no inhibitory activity
CCOC(=O)c1cc(O)c(O)c(O)c1 [Compound 10, Ethyl gallate] | 38 ± 1.94 | α-glucosidase inhibitory activity (in words) [2]: no inhibitory activity
COc1cc(/C=C/C(=O)O)ccc1O [Compound 11, Ferulic acid] | 95 ± 2.41 | –
O=C(O)/C=C/c1ccc(O)c(O)c1 [Compound 12, Caffeic acid] | 36.91 ± 0.3 | –
O=c1c(O)c(-c2ccc(O)c(O)c2)oc2cc(O)cc(O)c12 [Compound 13, Quercetin] | 60 ± 0.82 | IC50 [2]: 138 ± 7.07 µM
Oc1cc(O)c2c(c1)O[C@H](c1ccc(O)c(O)c1)[C@H](O)C2 [Compound 16, Epicatechin] | 40.1 ± 0.82 | –

Source: paper PMC7785352, “Antioxidant and α-Glucosidase Inhibitory Activities Guided Isolation and Identification of Components from Mango Seed Kernel” (Oxidative Medicine and Cellular Longevity, 2020)
